Key:
[1] = EPA determination; cited from earlier work
[2] = EPA determination; cited from earlier work; remark: listed apart in the source
[3] = EPA determination; cited from earlier work; remark: listed apart in the source
[4] = system: most types of plant material; assay: Spray solution over the tops of growing plant material; assay type: in vivo; settings: diluted in water, sprayed over the tops of growing plant material, no foam
[5] = system: algae, bacteria, fungi, viruses and bryophyte plant material such as mosses, liverworts, hornworts, lichens; assay: 1% spray solution on simple celled plant material; assay type: in vivo
Description: The pH of the resulting solution is typically alkaline, which activates the H2O2 for bleaching. The dry powder contains about 30% by weight w/w H2O2 and finds specialty use as a wood brightener and general cleaning aid.

[6] = EPA determination, cited from earlier work

O=C([O-])[O-].O=C([O-])[O-].OO.OO.OO.[Na+].[Na+].[Na+].[Na+] [sodium carbonate peroxyhydrate]
dermal sensitizer [1]: not considered a dermal sensitizer | eye damage [2]: severe irreversible eye damage | dermal irritation [3]: Dermal irritation also occurred | phytotoxicity effects of spray solution [4]: minimal with some plant cell necrosis | effect on simple celled plant material [5]: kill on contact | toxicity, dermal exposure ([6]; dermal exposure): minimal to mild toxicity | toxicity, oral exposure ([6]; oral exposure): minimal to mild toxicity

From patent publication US20060258535A1, “METHOD OF USING SODIUM CARBONATE PEROXYHYDRATE AS AN HERBICIDE” (BIOSAFE SYSTEMS L.L.C.,, priority 2005, published 2006)
